Source: patent US9241887B2, “Systems and methods for skin rejuvenation” (Sesvalia USA, LLC, priority 2009, dated 2016)

How the values were obtained:
[1] = Antioxidant activity of active ingredients alone and combined (FIG. 1); details: for antioxidant activity relative to vehicle: ingredient alone, control = vehicle (mixture of ethanol and macrogol); for synergistic effect on antioxidant activity: ingredients combined; for antioxidant activity when combined with Vitamin C and Vitamin E: polyphenol derivatives combined with Vitamin C and Vitamin E
human skin = details: cited from earlier work
[2] = phospholipidic membranes; cited from earlier work
[3] = cited from earlier work
mild atopic dermatitis = details: 0.3% rosmarinic acid emulsion, topical application; cited from earlier work
[4] = test system: seasonal allergic rhinoconjunctivitis; details: oral supplementation; cited from earlier work
[5] = test system: human polymorphonuclear leukocytes; details: cited from earlier work
[6] = test system: human keratinocyte cell lines; details: cited from earlier work
[7] = gastrointestinal tract and skin; cited from earlier work

## O=C1O[C@H]([C@@H](O)CO)C(O)=C1O [Vitamin C, ascorbic acid]
[1]
  antioxidant activity relative to vehicle: more than twice as much antioxidant activity as the vehicle
  synergistic effect on antioxidant activity: synergistic effect

## O=C(O)/C=C/c1ccc(O)c(O)c1 [caffeic acid, 3,4-dihydroxycinnamic acid]
[1]
  antioxidant activity when combined with Vitamin C and Vitamin E: stronger antioxidant activity (more than twice)
Human skin
  protection from UVB-induced erythema: protect human skin from UVB-induced erythema
[2]
  protection from UV-induced peroxidation: protect phospholipidic membranes from UV-induced peroxidation

## COc1cc(/C=C/C(=O)O)ccc1O [ferulic acid, Ferulic acid]
[1]
  synergistic effect on antioxidant activity: synergistic effect
  antioxidant activity when combined with Vitamin C and Vitamin E: stronger antioxidant activity (more than twice)
[3]; acidic pH
  behaviour at acidic pH: precipitates into crystals

## O=C(CCc1ccc(O)cc1)c1c(O)cc(O)cc1O [phloretin, Phloretin]
[1]
  synergistic effect on antioxidant activity: synergistic effect
  antioxidant activity when combined with Vitamin C and Vitamin E: stronger antioxidant activity (more than twice)
[3]
  solubility in ethanol: very soluble in ethanol
  solubility in water: insoluble in water

## O=C(/C=C/c1ccc(O)c(O)c1)O[C@H](Cc1ccc(O)c(O)c1)C(=O)O [rosmarinic acid, alpha-o-caffeoyl-3,4-dihydroxyphenyl lactic acid]
[1]
  antioxidant activity when combined with Vitamin C and Vitamin E: stronger antioxidant activity (more than twice)
Mild atopic dermatitis
  symptoms of mild atopic dermatitis: improves some symptoms of the disease including the erythema, transepidermal water loss, xerosis and pruritus
[4]
  treatment of seasonal allergic rhinoconjunctivitis: effective treatment for seasonal allergic rhinoconjunctivitis
[5]
  leukotriene B4 production: reduce leukotriene B4 production
  prostaglandin E2 production: augment prostaglandin E2 production
[6]
  photoprotective effect against UVA-induced alterations: photoprotective effects against alterations induced by UVA exposure
[7]
  absorption: well absorbed through the gastrointestinal tract and the skin

## Vitamin E
[1]
  antioxidant activity relative to vehicle: more than twice as much antioxidant activity as the vehicle
